Active and inactive are the calls of the source. No cut-off for these calls is given here.
Test system: Vibrio harveyi
Test: Inhibition of Vibrio harveyi BB120 bacterial growth at 4 to 500 ug/ml incubated for 24 hrs by resazurin dye based microplate reader assay
Format: functional, organism-based
Settings: dose 4-500 µg/ml

Row | SMILES | inhibition
1 | COC(=O)[C@H](C)NC(=O)[C@H](Cc1ccccc1)NC(=O)C1COC(C)(C)O1 (stereo partly drawn) | inactive
2 | CC1(C)OCC(C(=O)N[C@@H](Cc2ccccc2)C(=O)O)O1 (stereo partly drawn) | inactive
3 | O=C(NCCc1ccccc1)C1COC2(CCCCC2)OC1 | inactive

Target: T1, Autoinducer-2 kinase (Bacteria) (UniProt P77432)
T1 sequence (whole entry): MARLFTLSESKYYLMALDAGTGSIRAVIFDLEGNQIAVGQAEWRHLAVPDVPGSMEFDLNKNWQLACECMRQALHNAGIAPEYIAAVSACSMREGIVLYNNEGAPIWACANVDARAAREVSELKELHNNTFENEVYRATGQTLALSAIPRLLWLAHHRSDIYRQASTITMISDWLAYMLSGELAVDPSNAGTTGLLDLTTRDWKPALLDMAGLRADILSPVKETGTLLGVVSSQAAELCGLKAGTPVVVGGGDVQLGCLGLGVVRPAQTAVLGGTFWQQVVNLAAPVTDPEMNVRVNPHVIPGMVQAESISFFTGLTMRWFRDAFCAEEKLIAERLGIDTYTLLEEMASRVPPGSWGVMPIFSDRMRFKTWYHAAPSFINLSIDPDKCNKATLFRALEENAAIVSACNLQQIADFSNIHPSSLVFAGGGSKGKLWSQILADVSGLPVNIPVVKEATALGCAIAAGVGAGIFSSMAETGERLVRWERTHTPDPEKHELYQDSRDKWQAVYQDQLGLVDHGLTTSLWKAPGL
Test: Binding affinity to LsrK (unknown origin) assessed as reduction in fluorescence intensity by intrinsic tryptophan fluorescence spectroscopy
Settings: not given

Row | SMILES | Activity
4 | CC1(C)OC[C@@H](C(=O)N[C@@H](Cc2ccccc2)C(=O)O)O1 | Dose-Dependent Effect
5 | COC(=O)[C@H](C)NC(=O)[C@H](Cc1ccccc1)NC(=O)[C@H]1COC(C)(C)O1 | Dose-Dependent Effect
6 | COC(=O)[C@H](C)NC(=O)[C@H](Cc1ccccc1)NC(=O)[C@@H]1COC(C)(C)O1 | Dose-Dependent Effect
7 | O=C(NCCc1ccccc1)C1COC2(CCCCC2)OC1 | Dose-Dependent Effect
8 | CC1(C)OC[C@H](C(=O)N[C@@H](Cc2ccccc2)C(=O)O)O1 | Dose-Dependent Effect

Target: T1, Autoinducer-2 kinase (Bacteria)
Test: Binding affinity to LsrK (unknown origin) by STD NMR assay
Settings: not given

Row | SMILES | Activity
9 | O=C(NCCc1ccccc1)C1COC2(CCCCC2)OC1 | Active

Test system: Vibrio harveyi
Test: Inhibition of Vibrio harveyi BB886 bacterial growth at 4 to 500 ug/ml incubated for 24 hrs by resazurin dye based microplate reader assay
Format: functional, organism-based
Settings: dose 4-500 µg/ml

Row | SMILES | inhibition
10 | COC(=O)[C@H](C)NC(=O)[C@H](Cc1ccccc1)NC(=O)C1COC(C)(C)O1 (stereo partly drawn) | inactive
11 | CC1(C)OCC(C(=O)N[C@@H](Cc2ccccc2)C(=O)O)O1 (stereo partly drawn) | inactive
12 | O=C(NCCc1ccccc1)C1COC2(CCCCC2)OC1 | inactive

Test system: not listed separately
Test: Inhibition of Vibrio harveyi BB886 AI-1 mediated Quorum sensing system assessed as reduction in bioluminescence incubated for 8 hrs
Settings: not given

Row | SMILES | inhibition
13 | COC(=O)[C@H](C)NC(=O)[C@H](Cc1ccccc1)NC(=O)C1COC(C)(C)O1 (stereo partly drawn) | inactive
14 | CC1(C)OCC(C(=O)N[C@@H](Cc2ccccc2)C(=O)O)O1 (stereo partly drawn) | inactive
15 | O=C(NCCc1ccccc1)C1COC2(CCCCC2)OC1 | inactive

Test system: not listed separately
Test: Inhibition of Vibrio harveyi BB170 AI-2 mediated Quorum sensing system assessed as reduction in bioluminescence incubated for 8 hrs
Settings: not given

Row | SMILES | inhibition | IC50
16 | COC(=O)[C@H](C)NC(=O)[C@H](Cc1ccccc1)NC(=O)C1COC(C)(C)O1 (stereo partly drawn) | Active | 
17 | CC1(C)OCC(C(=O)N[C@@H](Cc2ccccc2)C(=O)O)O1 (stereo partly drawn) | Active | 
18 | O=C(NCCc1ccccc1)C1COC2(CCCCC2)OC1 | Active | 
19 | CCCCCCCN(CCN(CC(=O)O)CC(=O)O)CC(=O)O |  | 400 nM

Test system: Pseudomonas aeruginosa
Test: Inhibition of Pseudomonas aeruginosa bacterial growth at 500 ug/ml incubated for 20 hrs by microplate reader assay
Format: functional, organism-based
Settings: dose 500.0 µg/ml

Row | SMILES | inhibition
20 | COC(=O)[C@H](C)NC(=O)[C@H](Cc1ccccc1)NC(=O)C1COC(C)(C)O1 (stereo partly drawn) | inactive
21 | c1ccc(-c2cc(C3COC4(CCCCC4)O3)[nH]n2)cc1 (stereo not drawn) | inactive
22 | Cn1nc(C2COC3(CCCCC3)O2)cc1-c1ccccc1 (stereo not drawn) | inactive
23 | CC1(C)OCC(C(=O)N[C@@H](Cc2ccccc2)C(=O)O)O1 (stereo partly drawn) | inactive
24 | O=C(NCCc1ccccc1)C1COC2(CCCCC2)OC1 | inactive
25 | O=C(N[C@@H](Cc1ccccc1)C(=O)O)C1COC2(CCCCC2)O1 (stereo partly drawn) | inactive

Target: T1, Autoinducer-2 kinase (Bacteria)
Test: Binding affinity to LSRK (unknown origin) assessed as change in melting temperature at 500 ug/ml in presence of ATP by SYPRO orange staining based differential scanning fluorimetry assay
Settings: dose 500.0 µg/ml

Row | SMILES | ΔTm
26 | COC(=O)[C@H](C)NC(=O)[C@H](Cc1ccccc1)NC(=O)C1COC(C)(C)O1 (stereo partly drawn) | > 2 °C
27 | CC1(C)OCC(C(=O)N[C@@H](Cc2ccccc2)C(=O)O)O1 (stereo partly drawn) | > 2 °C
28 | O=C(NCCc1ccccc1)C1COC2(CCCCC2)OC1 | > 2 °C

Target: T1, Autoinducer-2 kinase (Bacteria)
Test: Binding affinity to LSRK (unknown origin) assessed as change in melting temperature at 500 ug/ml by SYPRO orange staining based differential scanning fluorimetry assay
Settings: dose 500.0 µg/ml

Row | SMILES | ΔTm
29 | CC1(C)OC[C@@H](C(=O)N[C@@H](Cc2ccccc2)C(=O)O)O1 | > 1 °C
30 | COC(=O)[C@H](C)NC(=O)[C@H](Cc1ccccc1)NC(=O)[C@@H]1COC(C)(C)O1 | > 1 °C
31 | O=C(NCCc1ccccc1)C1COC2(CCCCC2)OC1 | > 1 °C
32 | CC1(C)OC[C@H](C(=O)N[C@@H](Cc2ccccc2)C(=O)O)O1 | > 1 °C

Target: T1, Autoinducer-2 kinase (Bacteria)
Test: Binding affinity to LsrK (unknown origin) assessed as decrease in ellipticity at 2 to 20 uM by Far-UV CD spectra
Settings: dose 2-20 µM

Row | SMILES | Activity
33 | CC1(C)OC[C@@H](C(=O)N[C@@H](Cc2ccccc2)C(=O)O)O1 | Dose-Dependent Effect
34 | O=C(NCCc1ccccc1)C1COC2(CCCCC2)OC1 | Dose-Dependent Effect
35 | CC1(C)OC[C@H](C(=O)N[C@@H](Cc2ccccc2)C(=O)O)O1 | Dose-Dependent Effect

Test system: Pseudomonas aeruginosa
Test: Antibiofilm activity against Pseudomonas aeruginosa PAO1 at 500 ug/ml incubated for […] by crystal violet staining based microplate reader assay
Format: functional
Settings: dose 500 µg/ml

Row | SMILES | MBIC50
36 | CC(=O)N[C@@H](CS)C(=O)O [ACETYLCYSTEINE] | 14 µg/mL
37 | COC(=O)[C@H](C)NC(=O)[C@H](Cc1ccccc1)NC(=O)C1COC(C)(C)O1 (stereo partly drawn) | 29.1 µg/mL
38 | c1ccc(-c2cc(C3COC4(CCCCC4)O3)[nH]n2)cc1 (stereo not drawn) | 22.5 µg/mL
39 | CC1(C)OC[C@@H](C(=O)N[C@@H](Cc2ccccc2)C(=O)O)O1 | 34.4 µg/mL
40 | Cn1nc(C2COC3(CCCCC3)O2)cc1-c1ccccc1 (stereo not drawn) | 373 µg/mL
41 | COC(=O)[C@H](C)NC(=O)[C@H](Cc1ccccc1)NC(=O)C1OCC2(CCCCC2)CO1 | 483 µg/mL
42 | O=C(NCc1ccccc1)C1COC2(CCCCC2)OC1 | 40.8 µg/mL
43 | CC1(C)OCC(C(=O)NCc2ccccc2)O1 (stereo not drawn) | 36.6 µg/mL
44 | CC1(C)OCC(C(=O)N[C@@H](Cc2ccccc2)C(=O)O)O1 (stereo partly drawn) | 27.7 µg/mL
45 | COC(=O)[C@H](C)NC(=O)[C@H](Cc1ccccc1)NC(=O)[C@H]1COC(C)(C)O1 | 31.7 µg/mL
46 | O=C(N[C@@H](Cc1ccccc1)C(=O)O)C1COC2(CCCCC2)OC1 | 50 µg/mL
47 | COC(=O)[C@H](C)NC(=O)[C@H](Cc1ccccc1)NC(=O)[C@@H]1COC(C)(C)O1 | 25.4 µg/mL
48 | COC(=O)[C@H](Cc1ccccc1)NC(=O)C1COC2(CCCCC2)O1 (stereo partly drawn) | 60.5 µg/mL
49 | O=C(NCCc1ccccc1)C1COC2(CCCCC2)OC1 | 6.2 µg/mL
50 | O=C(NCCc1ccccc1)C1COC2(CCCCC2)O1 (stereo not drawn) | 38.3 µg/mL
51 | CC1(C)OC[C@H](C(=O)N[C@@H](Cc2ccccc2)C(=O)O)O1 | 30.4 µg/mL
52 | O=C(N[C@@H](Cc1ccccc1)C(=O)O)C1COC2(CCCCC2)O1 (stereo partly drawn) | 46.2 µg/mL

Target: T1, Autoinducer-2 kinase (Bacteria)
Test: Binding affinity to LsrK (unknown origin) assessed as reduction in fluorescence intensity at 1 uM by intrinsic tryptophan fluorescence spectroscopy
Settings: not given

Row | SMILES | Flu intensity
53 | CC1(C)OC[C@@H](C(=O)N[C@@H](Cc2ccccc2)C(=O)O)O1 | 12%
54 | CC1(C)OC[C@H](C(=O)N[C@@H](Cc2ccccc2)C(=O)O)O1 | 6%

Test system: not listed separately
Test: Inhibition of Vibrio harveyi BB120 AI-2 mediated Quorum sensing system assessed as reduction in bioluminescence incubated for 8 hrs
Settings: not given

Row | SMILES | inhibition
55 | COC(=O)[C@H](C)NC(=O)[C@H](Cc1ccccc1)NC(=O)C1COC(C)(C)O1 (stereo partly drawn) | Active
56 | CC1(C)OCC(C(=O)N[C@@H](Cc2ccccc2)C(=O)O)O1 (stereo partly drawn) | Active
57 | O=C(NCCc1ccccc1)C1COC2(CCCCC2)OC1 | Active

Test system: Staphylococcus aureus
Test: Antibiofilm activity against Staphylococcus aureus BHICC at 500 ug/ml incubated for 24 hrs by crystal violet staining based microplate reader assay
Format: functional
Settings: dose 500 µg/ml

Row | SMILES | MBIC50
58 | O=C(NCc1ccccc1)C(O)CO (stereo not drawn) | 128.2 µg/mL
59 | COC(=O)[C@H](C)NC(=O)[C@H](Cc1ccccc1)NC(=O)C1COC(C)(C)O1 (stereo partly drawn) | 152.3 µg/mL
60 | c1ccc(-c2cc(C3COC4(CCCCC4)O3)[nH]n2)cc1 (stereo not drawn) | 45.1 µg/mL
61 | CC1(C)OC[C@@H](C(=O)N[C@@H](Cc2ccccc2)C(=O)O)O1 | 26.3 µg/mL
62 | Cn1nc(C2COC3(CCCCC3)O2)cc1-c1ccccc1 (stereo not drawn) | 121.4 µg/mL
63 | COC(=O)[C@H](C)NC(=O)[C@H](Cc1ccccc1)NC(=O)C1OCC2(CCCCC2)CO1 | 55.9 µg/mL
64 | CCOC(=O)N1CCC(=C2c3ccc(Cl)cc3CCc3cccnc32)CC1 [LORATADINE] | 23 µg/mL
65 | O=C(NCc1ccccc1)C1COC2(CCCCC2)O1 (stereo not drawn) | 1913 µg/mL
66 | CC1(C)OCC(C(=O)N[C@@H](Cc2ccccc2)C(=O)O)O1 (stereo partly drawn) | 34.6 µg/mL
67 | COC(=O)[C@H](C)NC(=O)[C@H](Cc1ccccc1)NC(=O)[C@H]1COC(C)(C)O1 | 169.7 µg/mL
68 | O=C(N[C@@H](Cc1ccccc1)C(=O)O)C1COC2(CCCCC2)OC1 | 20.6 µg/mL
69 | COC(=O)[C@H](C)NC(=O)[C@H](Cc1ccccc1)NC(=O)[C@@H]1COC(C)(C)O1 | 82.2 µg/mL
70 | COC(=O)[C@H](Cc1ccccc1)NC(=O)C1COC2(CCCCC2)O1 (stereo partly drawn) | 71.1 µg/mL
71 | O=C(NCCc1ccccc1)C1COC2(CCCCC2)OC1 | 16.2 µg/mL
72 | O=C(NCCc1ccccc1)C1COC2(CCCCC2)O1 (stereo not drawn) | 92.3 µg/mL
73 | COC(=O)[C@H](Cc1ccccc1)NC(=O)C1COC2(CCCCC2)OC1 | 85.8 µg/mL
74 | CC1(C)OC[C@H](C(=O)N[C@@H](Cc2ccccc2)C(=O)O)O1 | 25.4 µg/mL
75 | Cn1nc(-c2ccccc2)cc1C1COC2(CCCCC2)O1 (stereo not drawn) | 55.2 µg/mL
76 | O=C(N[C@@H](Cc1ccccc1)C(=O)O)C1COC2(CCCCC2)O1 (stereo partly drawn) | 61.5 µg/mL
77 | COC(=O)[C@H](Cc1ccccc1)NC(=O)C(O)CO (stereo partly drawn) | 173 µg/mL

Test system: Staphylococcus aureus
Test: Inhibition of Staphylococcus aureus bacterial growth at 500 ug/ml incubated for 20 hrs by microplate reader assay
Format: functional, organism-based
Settings: dose 500.0 µg/ml

Row | SMILES | inhibition
78 | COC(=O)[C@H](C)NC(=O)[C@H](Cc1ccccc1)NC(=O)C1COC(C)(C)O1 (stereo partly drawn) | inactive
79 | c1ccc(-c2cc(C3COC4(CCCCC4)O3)[nH]n2)cc1 (stereo not drawn) | inactive
80 | Cn1nc(C2COC3(CCCCC3)O2)cc1-c1ccccc1 (stereo not drawn) | inactive
81 | CC1(C)OCC(C(=O)N[C@@H](Cc2ccccc2)C(=O)O)O1 (stereo partly drawn) | inactive
82 | O=C(NCCc1ccccc1)C1COC2(CCCCC2)OC1 | inactive
83 | O=C(N[C@@H](Cc1ccccc1)C(=O)O)C1COC2(CCCCC2)O1 (stereo partly drawn) | inactive

Source: ChEMBL document CHEMBL6071179, “New LsrK Ligands as AI-2 Quorum Sensing Interfering Compounds against Biofilm Formation” (J Med Chem, 2024)
